Target: T1, cloned human CRTH2 receptor (Homo sapiens, UniProt Q9Y5Y4)
T1 construct: purchased Biosignal; host or cells: HEK-293 cells stably expressing human CRTH2 and G-alpha-16 (membranes)
T1 sequence (Q9Y5Y4 1-395): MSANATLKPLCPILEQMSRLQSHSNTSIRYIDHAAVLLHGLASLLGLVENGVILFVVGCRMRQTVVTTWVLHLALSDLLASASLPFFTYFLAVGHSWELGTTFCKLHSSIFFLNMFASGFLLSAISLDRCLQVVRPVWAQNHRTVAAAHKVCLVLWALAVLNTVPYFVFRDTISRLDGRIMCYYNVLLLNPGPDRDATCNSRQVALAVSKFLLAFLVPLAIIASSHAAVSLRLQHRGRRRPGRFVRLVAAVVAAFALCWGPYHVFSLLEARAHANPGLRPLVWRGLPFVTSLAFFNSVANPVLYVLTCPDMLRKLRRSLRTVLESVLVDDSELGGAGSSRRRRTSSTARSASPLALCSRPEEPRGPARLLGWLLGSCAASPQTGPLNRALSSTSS
Assay: Radioligand membrane binding assay: inhibition of [3H] PGD2 binding to CRTH2 (Scintillation Proximity Assay)
Conditions: inhibition of [3H] PGD2 binding to membranes of HEK-293 cells stably expressing human CRTH2; SPA; 10 point curve from 10 μM; room temperature, approximately 2 hours
Protocol: This radioligand membrane binding assay evaluates the ability of compounds to inhibit [^3H] Prostaglandin D2 (PGD2) binding to the cloned human CRTH2 receptor stably expressed in HEK-293 cells (expressing human CRTh2 receptor and α subunit or the heteronimeric G protein 16 were prepared by Biosignal Company) using Scintillation Proximity Assay.
A binding buffer containing 50 mM Tris-HCl (pH 7.5), 5 mM MgCl2 and 1 mM EDTA was prepared immediately prior to performing the assay. A bead/membrane solution at twice the final assay concentration comprising membranes (membranes bought from Biosignal) from the HEK-293 cells cloned to express CRTH2 receptor bound to and [3H] PGD2 at twotimes the final assay concentration were prepared and stored on ice before adding to wells. Cold PGD2 at twenty times the final assay concentration was prepared and stored on ice before adding to wells defining non-specific binding (NSB) corning plates #3653 were used for this assay.
10 mM stock concentrations of compounds in 100% DMSO were prepared and stored at room temperature. A 10 point concentration response curve was then constructed for each compound, starting at 10 μM (final assay concentration). The compounds were prepared at 40 times final assay concentrations with nine consequent-3-fold dilutions.
0.1 μl of each concentration of compound were added to the appropriate well of the 384 plate and 2 μl of cold PGD2 was added into the wells defining NSB. 20 μl of [^3H] PGD2 and then 20 μl of 2× of bead/membrane solution were then added to each well.
The plates were allowed to incubate at room temperature for approximately 2 hours and then counted on Packard Topcount using SPA tritium protocol for 1 minute/well.
The percent inhibition of PGD2 binding (PGD2 used at the KD value or lower) to the HEK-293 cell membranes was determined, the assay was always run as duplicate for n=1 for a total of n=2.

COc1cccc(C(=O)N2c3ccccc3[C@H](N(C(=O)c3ccc(Cl)cc3)c3ccccc3)C[C@@H]2C)c1 (racemic) [Compound A-3, (±)-Cis-4-chloro-N-[1-(3-methoxy-benzoyl)-2-methyl-1,2,3,4-tetrahydro-quinolin-4-yl]-N-phenyl-benzamide] and COc1cccc(C(=O)N2c3ccccc3[C@H](N(C(=O)c3ccno3)c3ccccc3)C[C@@H]2C)c1 (racemic) [Compound A-55, (±)-Cis-isoxazole-5-carboxylic acid [1-(3-methoxy-benzoyl)-2-methyl-1,2,3,4-tetrahydro-quinolin-4-yl]-phenyl-amide] cannot be ordered by Ki: less than 10 µM for the first, less than 10 µM for the second.

CC(=O)N(c1ccccc1)[C@@H]1C[C@H](C)N(C(=O)c2sc(-c3ccccc3)nc2C)c2ccccc21 (racemic) [Compound A-16, (±)-Cis-N-[2-methyl-1-(4-methyl-2-phenyl-thiazole-5-carbonyl)-1,2,3,4-tetrahydro-quinolin-4-yl]-N-phenyl-acetamide] and CC(=O)N(c1ccccc1)[C@@H]1C[C@H](C)N(C(=O)c2ccccc2C)c2ccccc21 (racemic) [Compound A-153, (±)-Cis-N-[2-methyl-1-(2-methyl-benzoyl)-1,2,3,4-tetrahydro-quinolin-4-yl]-N-phenyl-acetamide] cannot be ordered by Ki: less than 10 µM for the first, less than 10 µM for the second.

CC(=O)N(c1ccccc1)[C@@H]1C[C@H](C)N(C(=O)c2snnc2C)c2ccccc21 (racemic) [Compound A-17, (±)-Cis-N-[2-methyl-1-(4-methyl-[1,2,3]thiadiazole-5-carbonyl)-1,2,3,4-tetrahydro-quinolin-4-yl]-N-phenyl-acetamide] and CC(=O)N(c1ccccc1)[C@@H]1C[C@H](C)N(C(=O)c2sc(C)nc2C)c2ccccc21 (racemic) [Compound A-67, (±)-Cis-N-[1-(2,4-dimethyl-thiazole-5-carbonyl)-2-methyl-1,2,3,4-tetrahydro-quinolin-4-yl]-N-phenyl-acetamide] cannot be ordered by Ki: less than 10 µM for the first, less than 10 µM for the second.

CC(=O)N(c1ccccc1)[C@@H]1C[C@H](C)N(C(=O)c2cc(F)c(F)c(F)c2)c2ccccc21 (racemic) [Compound A-20, (±)-Cis-N-[2-methyl-1-(3,4,5-trifluoro-benzoyl)-1,2,3,4-tetrahydro-quinolin-4-yl]-N-phenyl-acetamide] and CC(=O)N(c1ccccc1)[C@@H]1C[C@H](C)N(C(=O)c2c(F)cc(F)cc2F)c2ccccc21 (racemic) [Compound A-24, (±)-Cis-N-[2-methyl-1-(2,4,6-trifluoro-benzoyl)-1,2,3,4-tetrahydro-quinolin-4-yl]-N-phenyl-acetamide] cannot be ordered by Ki: less than 10 µM for the first, less than 10 µM for the second.

CCC(=O)N(c1ccccc1)[C@@H]1C[C@H](C)N(C(=O)c2cccc(Cl)c2)c2ccccc21 (racemic) [Compound A-35, (±)-Cis-N-[1-(3-chloro-benzoyl)-2-methyl-1,2,3,4-tetrahydro-quinolin-4-yl]-N-phenyl-propionamide] and CCC(=O)N(c1ccccc1)[C@@H]1C[C@H](C)N(C(=O)c2ccnc(C)c2)c2ccccc21 (racemic) [Compound A-131, (±)-Cis-N-[2-methyl-1-(2-methyl-pyridine-4-carbonyl)-1,2,3,4-tetrahydro-quinolin-4-yl]-N-phenyl-propionamide] cannot be ordered by Ki: less than 10 µM for the first, less than 10 µM for the second.

CC(=O)N(C)CC(=O)N(c1ccccc1)[C@@H]1C[C@H](C)N(C(=O)c2ccc(F)cc2)c2ccccc21 (racemic) [Compound A-49, (±)-Cis-2-(acetyl-methyl-amino)-N-[1-(4-fluoro-benzoyl)-2-methyl-1,2,3,4-tetrahydro-quinolin-4-yl]-N-phenyl-acetamide] and CC(C)CC(=O)N(c1ccccc1)[C@@H]1C[C@H](C)N(C(=O)c2ccc(F)cc2)c2ccccc21 (racemic) [Compound A-132, (±)-Cis-N-[1-(4-fluoro-benzoyl)-2-methyl-1,2,3,4-tetrahydro-quinolin-4-yl]-3-methyl-N-phenyl-butyramide] cannot be ordered by Ki: less than 10 µM for the first, less than 10 µM for the second.

COc1cccc(C(=O)N2c3ccccc3[C@H](N(C(=O)C3CCCCC3)c3ccccc3)C[C@@H]2C)c1 (racemic) [Compound A-54, (±)-Cis-cyclohexanecarboxylic acid [1-(3-methoxy-benzoyl)-2-methyl-1,2,3,4-tetrahydro-quinolin-4-yl]-phenylamide] and COc1cccc(C(=O)N2c3ccccc3[C@@H](N(C(C)=O)c3ccccc3)C[C@@H]2C)c1 (racemic) [Compound A-124, (±)-Trans-N-[1-(3-methoxy-benzoyl)-2-methyl-1,2,3,4-tetrahydro-quinolin-4-yl]-N-phenyl-acetamide] cannot be ordered by Ki: less than 10 µM for the first, less than 60 µM for the second.

C[C@H]1C[C@@H](N(C(=O)COc2ccccc2)c2ccccc2)c2ccccc2N1C(=O)c1ccc(F)cc1 (racemic) [Compound A-72, (±)-Cis-N-[1-(4-fluoro-benzoyl)-2-methyl-1,2,3,4-tetrahydro-quinolin-4-yl]-2-phenoxy-N-phenyl-acetamide] and C[C@H]1C[C@@H](N(C(=O)CCc2ccccc2)c2ccccc2)c2ccccc2N1C(=O)c1ccc(F)cc1 (racemic) [Compound A-73, (±)-Cis-N-[1-(4-fluoro-benzoyl)-2-methyl-1,2,3,4-tetrahydro-quinolin-4-yl]-3,N-diphenyl-propionamide] cannot be ordered by Ki: less than 10 µM for the first, less than 10 µM for the second.

CCC(=O)N(c1ccccc1)C1CC(C)N(C(=O)C2CN(Cc3ccccc3)CCO2)c2ccccc21 (racemic) [Compound A-81, (±)-Cis-N-[1-(4-benzyl-morpholine-2-carbonyl)-2-methyl-1,2,3,4-tetrahydro-quinolin-4-yl]-N-phenyl-propionamide] and CCC(=O)N(c1ccccc1)C1CC(C)N(C(=O)C2CN(CC)CCO2)c2ccccc21 (racemic) [Compound A-82, (±)-Cis-N-[1-(4-Ethyl-morpholine-2-carbonyl)-2-methyl-1,2,3,4-tetrahydro-quinolin-4-yl]-N-phenyl-propionamide] cannot be ordered by Ki: less than 10 µM for the first, less than 10 µM for the second.

CC(=O)N(c1ccccc1)[C@@H]1C[C@H](C)N(C(=O)c2cccn2C)c2ccccc21 (racemic) [Compound A-130, (±)-Cis-N-[2-methyl-1-(1-methyl-1H-pyrrole-2-carbonyl)-1,2,3,4-tetrahydro-quinolin-4-yl]-N-phenyl-acetamide] and CC(=O)N(c1ccccc1)[C@@H]1C[C@H](C)N(C(=O)c2cc(C)nn2C)c2ccccc21 (racemic) [Compound A-159, (±)-Cis-N-[1-(2,5-dimethyl-2H-pyrazole-3-carbonyl)-2-methyl-1,2,3,4-tetrahydro-quinolin-4-yl]-N-phenyl-acetamide] cannot be ordered by Ki: less than 10 µM for the first, less than 10 µM for the second.

CCC(=O)N(c1ccccc1)[C@@H]1C[C@H](C)N(C(=O)c2ccc(-c3ccc(C(F)(F)F)cc3Cl)o2)c2ccccc21 (racemic) [Compound A-143, (±)-Cis-N-{1-[5-(2-chloro-4-trifluoromethyl-phenyl)-furan-2-carbonyl]-2-methyl-1,2,3,4-tetrahydro-quinolin-4-yl}-N-phenyl-propionamide] and CCC(=O)N(c1ccccc1)[C@@H]1C[C@H](C)N(C(=O)c2ccc(-c3ccc([N+](=O)[O-])cc3)o2)c2ccccc21 (racemic) [Compound A-144, (±)-Cis-N-{2-methyl-1-[5-(4-nitro-phenyl)-furan-2-carbonyl]-1,2,3,4-tetrahydro-quinolin-4-yl}-N-phenyl-propionamide] cannot be ordered by Ki: less than 10 µM for the first, less than 10 µM for the second.

C=CCC(=O)N(c1ccccc1)[C@@H]1C[C@H](C)N(C(=O)c2ccc(F)cc2)c2ccccc21 (racemic) [Compound A-147, (±)-Cis-but-3-enoic acid [1-(4-fluoro-benzoyl)-2-methyl-1,2,3,4-tetrahydro-quinolin-4-yl]-phenyl-amide] and CC(=O)N(c1ccccc1)[C@@H]1C[C@H](C)N(C(=O)c2c(C)noc2C)c2ccccc21 (racemic) [Compound A-154, (±)-Cis-N-[1-(3,5-dimethyl-isoxazole-4-carbonyl)-2-methyl-1,2,3,4-tetrahydro-quinolin-4-yl]-N-phenyl-acetamide] cannot be ordered by Ki: less than 10 µM for the first, less than 60 µM for the second.

Compound CC(=O)N(c1ccccc1)[C@@H]1C[C@H](C)N(C(=O)C2CCCCC2)c2ccccc21 (racemic) [Compound A-157, (±)-Cis-N-(1-cyclohexanecarbonyl-2-methyl-1,2,3,4-tetrahydro-quinolin-4-yl)-N-phenyl-acetamide] has a Ki of less than 10 µM.

— patent publication US7504508B2, “PGD2 receptor antagonists for the treatment of inflammatory diseases” (Millennium Pharmaceuticals, Inc., priority 2002, dated 2009)
